Measurements taken from patent publication US11022604B2, “Dock derived compound against laminin receptor (37 LR) and uses thereof” (Purdue Research Foundation, priority 2017, dated 2021).

Tested on: EA.hy926 endothelial cells
Assay: Angiogenesis tube formation assay
Assay type: cell-based
Experimental: Expression of PEDF-signaling associated genes from PC-3 cells treated with 50 μM C3, compared to DMSO control and normalized to GAPDH (n=3, mean±SEM). A Holm-Sidak multiple t test was used for statistical analysis (*p<0.05,**O<0.01, ***<0.001). […] Average tube count for 0.1% DMSO, 0.5% DMSO, and 1, 10 and 50 μM treatment with C3 (n=7, mean±SEM). 1 and 10 μM C3 were compared with respective 0.5% DMSO (unpaired two-tailed t test, ****<0.0001). 50 μM C3 was compared with respective 0.1% DMSO (unpaired two-tailed t test p<0.0001).
Wound Healing Assay. PC-3 cells were seeded in 6 well plates at 3×10^5 cells per well in complete media until the cells reached confluency. Three horizontal and three vertical scratches were made in the confluent monolayers using a standard 200 μL pipette tip and cellular debris were removed by washing with 1×DPBS three times. 1×RPMI-1640 supplemented with C3 or DMSO was added and cells were incubated for 48 hours as described previously. […] Images were uploaded and analyzed for scratch geometry using the tscratch program (96). First, global thresholding was performed, then individual images were manually inspected for single image threshold adjustment and scratch geometries were quantified. […] The samples were analyzed using the Dionex UltiMate 3000 RSLC Nano System coupled to the Q Exactive™ HF Hybrid Quadrupole-Orbitrap MS (Thermo Scientific). […]

Which calcein uptake does the source give for O=C(c1cc(F)cc2c1OCOC2)N1CCN(C2c3ccccc3-c3ccccc32)CC1 [Compound C3, [4-(9h-fluoren-9-yl)piperazino](6-fluoro-4h-1,3-benzodioxin-8-yl)methanone] here?
The calcein uptake was “did not alter calcein uptake”.
